# Reference: patent US8703483B2, “Reagents and methods for using human embryonic stem cells to evaluate toxicity of pharmaceutical compounds and other chemicals” (Wisconsin Alumni Research Foundation, priority 2006, dated 2014)
# Assays:
# [1] = system: neuronal precursors derived from hESCs; assay: Metabolite profiling of neural precursors derived from hESCs treated with valproate; format: cell-based, human; conditions: 1 mM valproate
# Source text: Metabolomic assessment of teratogens on embryonic development is not limited exclusively to hESCs.
# [2] = system: H1/NIH code WA01 hES cells; assay: Quantitative real-time PCR of epigenetic regulators and developmental genes in VPA-treated hESCs; format: cell-based, human; conditions: 1 mM VPA treated
# Description: Treated and control H1/NIH code WA01 hES cells (passage 41) were analyzed by real-time PCR, and each treatment group was paired with a corresponding control group that received the standard growth media combination of CM+bFGF without VPA. In these studies, total cellular RNA was extracted from cells harvested at 24 hours (24 H), 4 days (4 D) and 8 days (EC) using the RNA Easy Kit (Qiagen, Valencia, Calif.) according to the manufacturer's instructions.
# Expression levels of candidate test genes and a housekeeping gene (Beta-2-microglobulin) were evaluated by quantitative real-time PCR using a DNA Engine-Opticon 2 Detection System (MJ Research, Watertown, Mass.). The housekeeping gene acts as an internal control for normalization of RNA levels. The primers used for real-time PCR reactions were designed using Beacon Designer software (Premier Biosoft International, Palo Alto, Calif.). RNA was reverse transcribed using iScript cDNA Synthesis kit (Bio-Rad, Hercules, Calif.), wherein each cDNA synthesis reaction (20 μL) included 4 μL of 5× iScript reaction mix, 1 μL of iScript reverse transcriptase, and 2 μL of RNA. PCR was performed on cDNA in PCR reaction mixtures (25 μL) each containing 12.5 μL of Supermix (contains dNTPs, Taq DNA polymerase, SYBR Green I, and fluorescein), 250 nM forward primer, 250 nM reverse primer, and 1.6 μL RT-PCR products. Melting curve analysis and agarose gel electrophoresis were performed after real-time PCR reaction to monitor PCR specificity, wherein PCR products were detected with SYBR Green I using the iQ SYBR Green Supermix kit (Bio-Rad).
# Quantifying the relative expression of real-time PCR was performed using the 2-ΔΔCt method (Livak & Schmittgen, 2001, Methods 25:402-8), and a general linear model was employed to fit the expression data. The PROC GLM procedure in SAS (version 8.2; SAS Institute, Cary, N.C.) was used to estimate least squares means in expression between treated and untreated hESCs and P<0.05 was considered statistically significant
# Real-time PCR was conducted on samples from 24 hours (24 H), 4 days (4 D) and 8 days (EC) after VPA treatment to investigate expression levels of epigenetic regulators (such as DNA methyltransferase-1, DNMT-1, BMI-1, EED) and critical transcription factors responsible for embryonic patterning and neurodevelopment (RUNX2, BMP7, FGF8, CBX2, GLI3, SSH and SP8) in human embryonic stem cells.
# [3] = system: undifferentiated human embryonic stem cells (H1 and H9 hESC); assay: Metabolite profiling (LC/ESI-TOF-MS) of supernatant of hESCs treated with valproate; format: cell-based
# Description: Masses were binned together if they were within 10 ppm and eluted within a 2 minutes retention time window. […] Binning of the data is required for statistical analysis and comparison of masses across the entire experiment. If multiple peaks with the same mass at the same retention time within a single sample were detected by Mass Hunter, they were averaged to assist data analysis.
# As used herein, a mass was considered to be the same across LC/ESI-TOF-MS runs using a simple algorithm that first sorts the data by mass and retention time. […] If a series of measurements fit this definition it was considered to be from the same compound. If either the mass or the retention time varied by more than the limits listed above it was considered to be a different compound and given a new unique designation.
# [4] = system: human embryonic stem cells; assay: Viability and pluripotency (Oct-4, morphology) of hESCs after valproate exposure; format: cell-based; conditions: hESCs remained viable for multiple passages following exposure
# [5] = system: human embryonic stem cells; assay: Metabolite profiling (LC/ESI-TOF mass spectrometry) of extracellular media of hESCs treated with alcohol; format: cell-based; conditions: for Putative kynurenine (exact neutral mass 208.0816) upregulation: day four
# Source text: Binned masses were annotated in silico by querying the neutral masses in several different databases. These databases included Metlin, Biological Magnetic Resonance Data Bank (BMRB), NIST Chemistry WebBook, and the Human Metabolome Database. A mass was considered identified when its neutral mass was within 10 ppm of a known compound annotated in one of the databases listed above.
# [6] = supplementation prior to pregnancy; cited from earlier work
# [7] = 0.3% alcohol, four days, p<0.05
structure (smiles),measurement,setting,value
CCCC(CCC)C(=O)O [valproate],Compounds differentially secreted in treated neuronal precursors versus control,[1],Approximately 135 compounds
same,BMI-1 gene expression level (target gene/Beta-2-Microglobulin),[2]; 4 D,0.112
same,BMP7 gene expression level (target gene/Beta-2-Microglobulin),[2]; 4 D,0.342
same,CBX2 gene expression level (target gene/Beta-2-Microglobulin),[2]; 4 D,1.1881
same,DNMT1 gene expression level (target gene/Beta-2-Microglobulin),[2]; 4 D,0.002
same,EED gene expression level (target gene/Beta-2-Microglobulin),[2]; 4 D,0.185
same,GLI3 gene expression level (target gene/Beta-2-Microglobulin),[2]; 4 D,0.774
same,H19 gene expression level (target gene/Beta-2-Microglobulin),[2]; 4 D,0.846
same,RUNX2 gene expression level (target gene/Beta-2-Microglobulin),[2]; 4 D,4.020
same,SP8 gene expression level (target gene/Beta-2-Microglobulin),[2]; 4 D,1.703
same,Shh gene expression level (target gene/Beta-2-Microglobulin),[2]; 4 D,0.533
same,BMI-1 gene expression level (target gene/Beta-2-Microglobulin),[2]; 24 H,0.252
same,BMP7 gene expression level (target gene/Beta-2-Microglobulin),[2]; 24 H,0.093
same,CBX2 gene expression level (target gene/Beta-2-Microglobulin),[2]; 24 H,0.245
same,DNMT1 gene expression level (target gene/Beta-2-Microglobulin),[2]; 24 H,0.624
same,EED gene expression level (target gene/Beta-2-Microglobulin),[2]; 24 H,0.342
same,FGF8 gene expression level (target gene/Beta-2-Microglobulin),[2]; 24 H,0.801
same,GLI3 gene expression level (target gene/Beta-2-Microglobulin),[2]; 24 H,0.015
same,H19 gene expression level (target gene/Beta-2-Microglobulin),[2]; 24 H,0.006
same,RUNX2 gene expression level (target gene/Beta-2-Microglobulin),[2]; 24 H,1.769
same,SP8 gene expression level (target gene/Beta-2-Microglobulin),[2]; 24 H,0.235
same,Shh gene expression level (target gene/Beta-2-Microglobulin),[2]; 24 H,0.562
same,BMI-1 gene expression level (target gene/Beta-2-Microglobulin),[2]; EC (8 days),1.071
same,BMP7 gene expression level (target gene/Beta-2-Microglobulin),[2]; EC (8 days),1.664
same,CBX2 gene expression level (target gene/Beta-2-Microglobulin),[2]; EC (8 days),1.946
same,DNMT1 gene expression level (target gene/Beta-2-Microglobulin),[2]; EC (8 days),1.124
same,EED gene expression level (target gene/Beta-2-Microglobulin),[2]; EC (8 days),1.769
same,FGF8 gene expression level (target gene/Beta-2-Microglobulin),[2]; EC (8 days),0.837
same,GLI3 gene expression level (target gene/Beta-2-Microglobulin),[2]; EC (8 days),1.918
same,H19 gene expression level (target gene/Beta-2-Microglobulin),[2]; EC (8 days),2.756
same,RUNX2 gene expression level (target gene/Beta-2-Microglobulin),[2]; EC (8 days),2.434
same,SP8 gene expression level (target gene/Beta-2-Microglobulin),[2]; EC (8 days),5.808
same,Compounds with statistically-significant differences in at least one time point,"[3]; 22 μM valproate, of 3,241 mass signals (3%)",110 compounds
same,Small molecules absent in treated groups,"[3]; VPA, 24 hours, vs untreated controls",approximately 40
same,Effect of treatment on hESC viability,[4],not detrimental
"CCO [ethanol, reference compound]",8-methoxykynurenate (219.0532) change,"[5]; 0.1% alcohol, four days, p<0.05",upregulated
same,Putative kynurenine (exact neutral mass 208.0816) upregulation,"[5]; 0.1% treatment, p=0.001",three-fold
same,Compounds significantly different (p<0.05) in at least one treatment,"[5]; 0.1 and 0.3% ethanol, of 49,481 mass signals","1,860 compounds"
same,5-hydroxy-L-tryptophan (220.0848) change in comparison to untreated controls,[5]; [7],significant downregulation
same,8-methoxykynurenate (219.0532) change,[5]; [7],upregulated
same,Putative kynurenine (exact neutral mass 208.0816) upregulation,"[5]; 0.3% treatment, p=0.002",three-fold
Nc1nc2ncc(CNc3ccc(C(=O)N[C@@H](CCC(=O)O)C(=O)O)cc3)nc2c(=O)[nH]1 [Folic acid],Reduction of the incidence of spina bifida,[6],70%
